Reference: patent publication US9463192B2, “Trk-inhibiting compound” (ONO PHARMACEUTICAL CO., LTD., priority 2013, dated 2016)
Like-named read-outs stand apart in the source and are kept apart here.

Legend:
[1] = system: NGF-induced vascular hyper permeability; assay: Inhibition of rat NGF-induced vascular hyper permeability; assay type: in vivo; details: po, 1 mg/kg orally, read-out: Inhibition rate of vascular hyper permeability (%) (time after administration (h))
Protocol: TrkA-inhibiting activity of the present compound was evaluted in vivo. The present compound dissolved in a medium was orally administered (adminstered volume: 5 mL/kg) to male CD(SD)IGS rats (7- to 9-week old, Charles River laboratories Japan, Inc.) shaved on the back. A medium was orally administered (adminstered volume: 5 mL/kg) to the control and normal groups. After 6, 12 or 14 hours of administration, 3 μg/mL of a NGF (Mouse 2.5s, Natural, Invitrogen) solution prepared in 0.1% BSA (Sigma-Aldrich)-containing saline was intracutaneously administered (dose; 50 μL/site) at 3 sites on the back of animals under halothane anesthesia. For the normal group, 0.1% BSA-containing saline was intracutaneously administered (dose; […]) at 3 sites on the back. Immediately after intracutaneous administration, 1% Evans Blue (Tokyo Chemical Industriy Co., Ltd.) was administered intravenously from tail (adminstered volume: 3 mL/kg). After 10 minutes of administration, the animals were sacrificed by bleeding due to incision of the abdominal aorta. The sites of intracutaneous administration on the back (3 sites) were excised and the skin samples were respectively transferred to the wells in a 48-well plate (Asahi Glass Co., Ltd.). Formamide (0.8 mL/well) was added to the plate and the plate was sealed and incubated overnight at 60° C. The formamide extraction solution (200 μL) was transferred to a 96-well plate and the absorbance (wavelength: 620 nm) of Evans Blue extracted in formamide was measured on an absorbance microplate reader (SpectraMAX 190, Molecular Devices Japan, K.K.). Standard samples of Evans Blue dissolved in formamide (0, 0.78, 1.56, 3.13, 6.25, 12.5, 25 and 50 µg/mL) were measured at the same time for the absorance (wavelength: 620 nm) to generate a calibration curve. Based on the calibration curve and the absorbances of samples, the concentrations of Evans Blue in the sample was calculated. The concentrations of Evans Blue for three skin samples collected from one aminal were averaged to obtain the vale for the animal. The rate of inhibition for rat NGF-induced vascular hyper permeability of the present compound was calculated according to the following Equation: Inhibition rate (%)={1−(AX−AN)/(AC−AN)}×100 [Eq. 3]
wherein AX: the concentration of Evans Blue of the test compound (an average value of 3 samples from one animal);
AN: the concentration of Evans Blue of the normal group (an average value of 3 samples from one animal);
AC: the concentration of Evans Blue of the control group (an average value of 3 samples from one animal).

human TrkA = human TrkA (Homo sapiens (Human), UniProt P04629); assay: Measurement of TrkA kinase-inhibiting activity using human TrkA-expressing cells; assay type: cell-based; details: CHO-K1 cells expressing human TrkA and NFAT-bla; NGF 50 ng/ml; TR-FRET reporter
Chain of human TrkA (P04629 33-796): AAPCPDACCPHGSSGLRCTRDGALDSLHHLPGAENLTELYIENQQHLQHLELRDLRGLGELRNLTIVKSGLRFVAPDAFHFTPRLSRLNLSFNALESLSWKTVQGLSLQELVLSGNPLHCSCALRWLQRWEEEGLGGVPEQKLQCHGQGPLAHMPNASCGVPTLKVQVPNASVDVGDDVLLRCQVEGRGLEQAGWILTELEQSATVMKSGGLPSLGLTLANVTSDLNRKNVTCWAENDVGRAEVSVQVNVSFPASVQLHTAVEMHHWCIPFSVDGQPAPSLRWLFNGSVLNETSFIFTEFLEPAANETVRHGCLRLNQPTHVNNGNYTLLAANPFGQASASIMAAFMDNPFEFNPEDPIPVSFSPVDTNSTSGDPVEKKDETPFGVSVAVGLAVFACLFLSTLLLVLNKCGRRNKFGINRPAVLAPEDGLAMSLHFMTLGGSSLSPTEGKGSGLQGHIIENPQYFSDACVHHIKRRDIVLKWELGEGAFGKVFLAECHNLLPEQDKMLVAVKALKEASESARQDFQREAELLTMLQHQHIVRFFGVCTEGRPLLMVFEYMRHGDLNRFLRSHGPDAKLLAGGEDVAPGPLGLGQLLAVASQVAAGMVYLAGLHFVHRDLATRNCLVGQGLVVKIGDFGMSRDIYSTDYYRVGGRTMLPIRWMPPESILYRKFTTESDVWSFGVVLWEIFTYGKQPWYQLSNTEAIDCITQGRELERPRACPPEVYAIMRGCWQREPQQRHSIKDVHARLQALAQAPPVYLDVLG
Protocol: TrkA kinase-inhibiting activity in cell systems was measured using CHO-K1 cells exressing human TrkA and NFAT-bla (CellSenser™ TrkA-NFAT-bla CHO-K1 cells, Invitrogen).
On the day before the assay, CellSenser™ TrkA-NFAT-bla CHO-K1 cells were suspended in an assay medium (Opti-MEM1 Reduced Serum Medium (Invitrogen) containing 0.5% dialysed fetal bovine serum (Invitrogen), 0.1 mM nonessential amino acids (Invitrogen), 1 mM sodium pyruvate (Invitrogen) and antibiotics (100 U/mL penicillin and 100 µg/mL streptomycin (Invitrogen))) and plated at a density of 2.4×10^4 cells/40 μL/well in a 96-well clear bottom plate (Corning, Catalogue No.: 3882). In some wells were added only the assay medium at 40 μL/well (Cell-free). On the day of the assay, 10 mM of the present compound (DMSO solution) was distributed in a 96-well plate (Costar, Catalogue No.: 3363) and serially diluted with DMSO with the geometrical ratio of 3. The serial dilutions were diluted with the assay medium to 100-fold to prepare a solution of the present compound with a 10-fold concentration (DMSO concentration: 1%). To the plate where cells were plated was added the present compound at 5 µL/well and the plate was incubated in a CO2 incubator with 5% CO2, 95% Air at 37° C. for 30 minutes. For a control and a blank, the assay medium containing 1% DMSO was added at 5 µL/well in place of the solution of the present compound. Subsequently the assay medium containing NGF (Mouse 2.5s, Natural, Invitrogen) was added to the plate at 5 µL/well (final concentration of NGF: 50 ng/ml) and the plate was incubated in a CO2 incubator with 5% CO2, 95% Air at 37° C. for 5 hours. For the blank group, the assay medium was added in place of NGF at 5 µL/well. A reporter assay detection reagent ([…]) was added to the plate which was then incubated in the dark at room temperature for 120 minutes. The reporter assay detection reagent was prepared from LiveBLAzer™-FRET B/G Loading Kit (Invitrogen). On the Analyst GT (Molecular Devices Japan, K.K.) the wells were irradiated with excitation light at 405 nm and the fluorescence intensities at 460 nm and 530 nm were measured. The time resolved fluorescence resonance energy transfer (TR-FRET) ratio of each well was calculated according to the following Equation 1: TR-FRET ratio=(A460x−A460F)/(A530x−A530F) [Eq. 1]
A460x: the fluorescence intensity at 460 nm of the present compound, control or blank;
A460F: the fluorescence intensity at 460 nm of the Cell-free;
A530x: the fluorescence intensity at 530 nm of the present compound, control or blank; and
A530x: the fluorescence intensity at 530 nm of the Cell-free.
The TR-FRET inhibition rate (%) of the present compound was calculated according to the following Equation 2: Inhibition rate (%)={1−(AX−AB)/(AC−AB)}×100 [Eq. 2]
wherein AX: the TR-FRET ratio when the present compound is added;
AB: the TR-FRET of the blank; and
AC: the TR-FRET of the control.
The IC50 value by the present compound was calculated from the inhibition curve based on the inhibition rate of the present compound at respective concentrations.

Compound | inhibition in vivo at 1 mg/kg ([1]; 14 h after administration) | IC50 (human TrkA) | inhibition in vivo at 1 mg/kg ([1]; 12 h after administration)
Nc1ncc(C(F)(F)F)cc1-c1ccc(Oc2ncc(NC(=O)Nc3cc(C(F)(F)F)ccc3-n3ccc(C(F)(F)F)n3)cn2)cc1 [Example 15-52, 1-(2-{4-[2-amino-5-(trifluoromethyl)-3-pyridinyl]phenoxy}-5-pyrimidinyl)-3-{5-(trifluoromethyl)-2-[3-(trifluoromethyl)-1H-pyrazol-1-yl]phenyl}urea] | 96% | 0.004 µM | 
Nc1ncc(Cl)cc1-c1ccc(Oc2ncc(NC(=O)Nc3cc(C(F)(F)F)ccc3-c3ccccc3)cn2)cc1 [Example 15-55, 1-{2-[4-(2-amino-5-chloro-3-pyridinyl)phenoxy]-5-pyrimidinyl}-3-[4-(trifluoromethyl)-2-biphenylyl]urea] | 94% | 0.004 µM | 
Nc1ncc(F)cc1-c1ccc(Oc2ncc(NC(=O)Nc3cc(C(F)(F)F)ccc3-c3ccccc3)cn2)cc1 [Example 15-58, 1-{2-[4-(2-amino-5-fluoro-3-pyridinyl)phenoxy]-5-pyrimidinyl}-3-[4-(trifluoromethyl)-2-biphenylyl]urea] | 100% | 0.002 µM | 
Nc1ncc(Cl)cc1-c1ccc(Oc2ncc(NC(=O)Nc3cc(C(F)(F)F)ccc3-n3cc(Cl)cn3)cn2)cc1 [Example 15-63, 1-{2-[4-(2-amino-5-chloro-3-pyridinyl)phenoxy]-5-pyrimidinyl}-3-[2-(4-chloro-1H-pyrazol-1-yl)-5-(trifluoromethyl)phenyl]urea] | 99% | 0.002 µM | 
Nc1ncc(Cl)cc1-c1ccc(Oc2ncc(NC(=O)Nc3cc(Cl)ccc3-n3ccc(C(F)(F)F)n3)cn2)cc1 [Example 15-71, 1-{2-[4-(2-amino-5-chloro-3-pyridinyl)phenoxy]-5-pyrimidinyl}-3-{5-chloro-2-[3-(trifluoromethyl)-1H-pyrazol-1-yl]phenyl}urea] | 100% | 0.002 µM | 
Nc1ncc(Cl)cc1-c1ccc(Oc2ncc(NC(=O)Nc3ccc(C(F)(F)F)cc3C(F)(F)F)cn2)cc1 [Example 15-77, 1-{2-[4-(2-amino-5-chloro-3-pyridinyl)phenoxy]-5-pyrimidinyl}-3-[2,4-bis(trifluoromethyl)phenyl]urea] | 100% | 0.002 µM | 
Nc1ncc(C(F)(F)F)cc1-c1ccc(Oc2ncc(NC(=O)Nc3cc(C(F)(F)F)ccc3-n3cc(Cl)cn3)cn2)cc1 [Example 15-87, 1-(2-{4-[2-amino-5-(trifluoromethyl)-3-pyridinyl]phenoxy}-5-pyrimidinyl)-3-[2-(4-chloro-1H-pyrazol-1-yl)-5-(trifluoromethyl)phenyl]urea] | 86% | 0.001 µM | 
CS(=O)(=O)c1ccc(C(F)(F)F)cc1NC(=O)Nc1cnc(Oc2ccc(-c3cc(F)cnc3N)cc2)nc1 [Example 15-96, 1-{2-[4-(2-amino-5-fluoro-3-pyridinyl)phenoxy]-5-pyrimidinyl}-3-[2-(methylsulfonyl)-5-(trifluoromethyl)phenyl]urea] | 90% | 0.0004 µM | 
CS(=O)(=O)c1ccc(C(F)(F)F)cc1NC(=O)Nc1cnc(Oc2ccc(-c3cc(C(F)(F)F)cnc3N)cc2)nc1 [Example 15-98, 1-(2-{4-[2-amino-5-(trifluoromethyl)-3-pyridinyl]phenoxy}-5-pyrimidinyl)-3-[2-(methylsulfonyl)-5-(trifluoromethyl)phenyl]urea] | 80% | 0.0008 µM | 
CS(=O)(=O)c1ccc(C(F)(F)F)cc1NC(=O)Nc1cnc(Oc2ccc(-c3cc(Cl)cnc3N)cc2)nc1 [Example 15-104, 1-{2-[4-(2-amino-5-chloro-3-pyridinyl)phenoxy]-5-pyrimidinyl}-3-[2-(methylsulfonyl)-5-(trifluoromethyl)phenyl]urea] | 100% | 0.0005 µM | 
CN(C)S(=O)(=O)c1ccc(C(F)(F)F)cc1NC(=O)Nc1cnc(Oc2ccc(-c3cc(C(F)(F)F)cnc3N)cc2)nc1 [Example 15-105, 2-{[(2-{4-[2-amino-5-(trifluoromethyl)-3-pyridinyl]phenoxy}-5-pyrimidinyl)carbamoyl]amino}-N,N-dimethyl-4-(trifluoromethyl)benzenesulfonamide] | 100% | 0.004 µM | 
O=C(Nc1cnc(Oc2ccc(-c3cnn4ccc(N5CCC5)nc34)cc2)nc1)Nc1cc(C(F)(F)F)ccc1-c1cccnc1 [Example 21-1, 1-(2-(4-(5-(azetidin-1-yl)pyrazolo[1,5-a]pyrimidin-3-yl)phenoxy)pyrimidin-5-yl)-3-(2-(pyridin-3-yl)-5-(trifluoromethyl)phenyl)urea] | 87% | 0.001 µM | 
Cn1nccc1-c1ccc(C(F)(F)F)cc1NC(=O)Nc1cnc(Oc2ccc(-c3cnn4ccc(N5CCC5)nc34)cc2)nc1 [Example 21-2, 1-(2-(4-(5-(azetidin-1-yl)pyrazolo[1,5-a]pyrimidin-3-yl)phenoxy)pyrimidin-5-yl)-3-(2-(1-methyl-H-pyrazol-5-yl)-5-(trifluoromethyl)phenyl)urea] | 100% | 0.001 µM | 
COc1ccn2ncc(-c3ccc(Oc4ncc(NC(=O)Nc5cc(C(F)(F)F)ccc5-c5cccnc5)cn4)cc3)c2n1 [Example 21-9, 1-(2-(4-(5-methoxypyrazolo[1,5-a]pyrimidin-3-yl)phenoxy)pyrimidin-5-yl)-3-(2-(pyridin-3-yl)-5-(trifluoromethyl)phenyl)urea] | 100% | 0.001 µM | 
O=C(Nc1cnc(Oc2ccc(-c3cnn4cccnc34)cc2)nc1)Nc1cc(C(F)(F)F)ccc1-c1cccnc1 [Example 21-13, 1-(2-(4-(pyrazolo[1,5-a]pyrimidin-3-yl)phenoxy)pyrimidin-5-yl)-3-(2-(pyridin-3-yl)-5-(trifluoromethyl)phenyl)urea] |  | 0.001 µM | 100%
CN(C)c1ccn2ncc(-c3ccc(Oc4ncc(NC(=O)Nc5cc(C(F)(F)F)ccc5-c5cccnc5)cn4)cc3)c2n1 [Example 21-37, 1-(2-{4-[5-(dimethylamino)pyrazolo[1,5-a]pyrimidin-3-yl]phenoxy}-5-pyrimidinyl)-3-[2-(3-pyridinyl)-5-(trifluoromethyl)phenyl]urea] | 98% | 0.001 µM | 
